The record followed here is US12559506B2, “Indazole based compounds and associated methods of use” (Arvinas Operations, Inc., priority 2021, dated 2026).

The target of the test is T1, LRRK2 (endogenous, HiBit tagged) (Homo sapiens, UniProt Q5S007).
T1 construct: endogenous in cells; host or cells: HEK293 cells with HiBit knock-in at the endogenous LRRK2 locus, stably expressing firefly luciferase
The test is described as follows: Endogenous LRRK2 degradation assay, endogenous gene C-terminally HiBit-tagged in HEK293 cells (Nano-Glo Dual Luciferase). The class given is cell-based. The source says: Exemplary Assay for Testing LRRK2 Degradation Driven by Exemplary Hetero-Bifunctional Compounds Designed to Target LRRK2
The assay measures the degradation of LRRK2 in cells where the C-terminus (3′) of the endogenous gene has been tagged with a HiBit sequence in HEK293 cells. The cells also express firefly luciferase, expressed from a Cytomegalovirus promoter and introduced into the HiBit tagged cells and stably expressed. The Nano-Glo® Dual Luciferase Reporter Assay System (Promega™, Madison, WI) was utilized.
Day 1—Preparation of Compound and Assay Plates. Two sets of plates were prepared: a triplicate set for the HiBit assay in white 384-well plates and a triplicate set of plate in black 384-well plates for the Alamar Blue cell viability assay. Briefly, the growth media (DMEM+Glutamax-10% fetal bovine serum-1% Penicillin-Streptomicin) from two T128 flasks was aspirated from the flasks. Cells were washed with Dulbecco's Phosphate Buffered Saline (dPBS) and aspirated. Trypsin (3 mL per flask) was added and the flasks were incubated for 2-3 minutes.
Ten mL of OptiMEM-10% fetal bovine-1% penicillin-streptomycin (hereinafter, “OptiMEM media”) was added to the flask and the cells and transferred to a 50 mL conical tube. A cell count (25 ul of cell into Effendorf vial+25 ul of Trypan Blue Stain) was performed and the cell density adjusted to 15,000 cell/45 μl/well (3.33×10^5/mL) in OptiMEM media.
Fourty-five microliters of the cell suspension (15,000 cells) was aliquoted to each well of the white 384-well plate. The plates incubated at room temperature for 10 minutes before being placed in the 37° C.+5% CO2 incubator overnight
Day 2—Compound Treatment. Exemplary compounds were prepared at a 1 mM starting concentration and 1:3 serial dilution for 11 points CRC prepared and stored in the freezer. The Master Compound Plate was thawed overnight at room temperature. DMSO (20 μL) was added into column 24 of the Master Compound Plate for negative control and 20 μL of 300 μM of Compound 4 in column 23 as positive control.
Intermediate Compound Plate with 4% DMSO in OptiMEM Media. DMSO was added to warm OptiMEM media to achieve a 4% DMSO solution (approximately 50 mL/plate). One-hundred microliters of the OptiMEM-4% DMSO was aliquoted to each well of 384-Well Deep Well Microplates.
The Master Compound Plate and the Intermediate Compound Plate were spun down.
One microliter of compound from the Master Compound Plate was transferred into the Intermediate plate (a 1:100 dilution). The diluted mixture was mixed and 5 μL transferred into the assay plate (a 1:10 dilution) for the final starting concentration of 1 μM. The Treated Assay plates were incubated for 24 hours at 37° C.+5% CO2. The Master Compound Plate was sealed and store at room temperature for a second run that was performed within a week.
Day 3—HiBit Assay. Five microliters of Alamar Blue was added to each well of the black 384-well plates. The plates were incubated for 2 hours in the incubator (37° C.+5% CO2) and at room temperature for one hour. Fluorescence of each plate was read on a plated reader for the Alamar Blue viability assay.
One set of white assay plates was warmed to room temperature (45 minute).
The One Glo luciferase mixture was prepared. The media from white 384-well assay plates was aspirated. Twenty-five μL of the One Glo luciferase mixture was added to each well of the assay plates. The plates were incubated on the bench (room temperature) for 45 minutes, including 10 minutes of shaking at 700 rpm. The luminescence of each plate was read on a plate reader.
1:100 DLR substrate and 1:100 LgBiT Protein dilution were added to the Promega Stop and Glo buffer and mixed just before addition to assay plates. Twenty-five microliters of Stop and Glo mixture was added to each well. Assay plates incubated for at least 45 minutes, including 10 minutes of shaking at 700 rpm. The luminescence of each plate was read on a plate reader.
Analysis of LRRK2 HiBit Screening assays. […]

The mark [1] stands for this setting: endogenous HiBit-tagged LRRK2 in HEK293 cells, 24 hours treatment, read-out: Endogenous WT DC50.
Where [2] appears, read: endogenous HiBit-tagged LRRK2 in HEK293 cells, 24 hours treatment, read-out: Endogenous WT Dmax.
Setting [3] is: endogenous HiBit-tagged LRRK2 in HEK293 cells, 24 hours, read-out: **Endogenous WT Dmax (%).
[4] abbreviates: endogenous HiBit-tagged LRRK2 in HEK293 cells, 24 hours, read-out: *Endogenous WT DC50.
Where [5] appears, read: endogenous HiBit-tagged LRRK2 in HEK293 cells, 24 hours treatment, read-out: **Endogenous WT Dmax (%).
Where [6] appears, read: endogenous HiBit-tagged LRRK2 in HEK293 cells, 24 hours treatment, read-out: *Endogenous WT DC50.

Like-named read-outs stand apart in the source and are kept apart here.

T1 sequence (Q5S007 whole entry): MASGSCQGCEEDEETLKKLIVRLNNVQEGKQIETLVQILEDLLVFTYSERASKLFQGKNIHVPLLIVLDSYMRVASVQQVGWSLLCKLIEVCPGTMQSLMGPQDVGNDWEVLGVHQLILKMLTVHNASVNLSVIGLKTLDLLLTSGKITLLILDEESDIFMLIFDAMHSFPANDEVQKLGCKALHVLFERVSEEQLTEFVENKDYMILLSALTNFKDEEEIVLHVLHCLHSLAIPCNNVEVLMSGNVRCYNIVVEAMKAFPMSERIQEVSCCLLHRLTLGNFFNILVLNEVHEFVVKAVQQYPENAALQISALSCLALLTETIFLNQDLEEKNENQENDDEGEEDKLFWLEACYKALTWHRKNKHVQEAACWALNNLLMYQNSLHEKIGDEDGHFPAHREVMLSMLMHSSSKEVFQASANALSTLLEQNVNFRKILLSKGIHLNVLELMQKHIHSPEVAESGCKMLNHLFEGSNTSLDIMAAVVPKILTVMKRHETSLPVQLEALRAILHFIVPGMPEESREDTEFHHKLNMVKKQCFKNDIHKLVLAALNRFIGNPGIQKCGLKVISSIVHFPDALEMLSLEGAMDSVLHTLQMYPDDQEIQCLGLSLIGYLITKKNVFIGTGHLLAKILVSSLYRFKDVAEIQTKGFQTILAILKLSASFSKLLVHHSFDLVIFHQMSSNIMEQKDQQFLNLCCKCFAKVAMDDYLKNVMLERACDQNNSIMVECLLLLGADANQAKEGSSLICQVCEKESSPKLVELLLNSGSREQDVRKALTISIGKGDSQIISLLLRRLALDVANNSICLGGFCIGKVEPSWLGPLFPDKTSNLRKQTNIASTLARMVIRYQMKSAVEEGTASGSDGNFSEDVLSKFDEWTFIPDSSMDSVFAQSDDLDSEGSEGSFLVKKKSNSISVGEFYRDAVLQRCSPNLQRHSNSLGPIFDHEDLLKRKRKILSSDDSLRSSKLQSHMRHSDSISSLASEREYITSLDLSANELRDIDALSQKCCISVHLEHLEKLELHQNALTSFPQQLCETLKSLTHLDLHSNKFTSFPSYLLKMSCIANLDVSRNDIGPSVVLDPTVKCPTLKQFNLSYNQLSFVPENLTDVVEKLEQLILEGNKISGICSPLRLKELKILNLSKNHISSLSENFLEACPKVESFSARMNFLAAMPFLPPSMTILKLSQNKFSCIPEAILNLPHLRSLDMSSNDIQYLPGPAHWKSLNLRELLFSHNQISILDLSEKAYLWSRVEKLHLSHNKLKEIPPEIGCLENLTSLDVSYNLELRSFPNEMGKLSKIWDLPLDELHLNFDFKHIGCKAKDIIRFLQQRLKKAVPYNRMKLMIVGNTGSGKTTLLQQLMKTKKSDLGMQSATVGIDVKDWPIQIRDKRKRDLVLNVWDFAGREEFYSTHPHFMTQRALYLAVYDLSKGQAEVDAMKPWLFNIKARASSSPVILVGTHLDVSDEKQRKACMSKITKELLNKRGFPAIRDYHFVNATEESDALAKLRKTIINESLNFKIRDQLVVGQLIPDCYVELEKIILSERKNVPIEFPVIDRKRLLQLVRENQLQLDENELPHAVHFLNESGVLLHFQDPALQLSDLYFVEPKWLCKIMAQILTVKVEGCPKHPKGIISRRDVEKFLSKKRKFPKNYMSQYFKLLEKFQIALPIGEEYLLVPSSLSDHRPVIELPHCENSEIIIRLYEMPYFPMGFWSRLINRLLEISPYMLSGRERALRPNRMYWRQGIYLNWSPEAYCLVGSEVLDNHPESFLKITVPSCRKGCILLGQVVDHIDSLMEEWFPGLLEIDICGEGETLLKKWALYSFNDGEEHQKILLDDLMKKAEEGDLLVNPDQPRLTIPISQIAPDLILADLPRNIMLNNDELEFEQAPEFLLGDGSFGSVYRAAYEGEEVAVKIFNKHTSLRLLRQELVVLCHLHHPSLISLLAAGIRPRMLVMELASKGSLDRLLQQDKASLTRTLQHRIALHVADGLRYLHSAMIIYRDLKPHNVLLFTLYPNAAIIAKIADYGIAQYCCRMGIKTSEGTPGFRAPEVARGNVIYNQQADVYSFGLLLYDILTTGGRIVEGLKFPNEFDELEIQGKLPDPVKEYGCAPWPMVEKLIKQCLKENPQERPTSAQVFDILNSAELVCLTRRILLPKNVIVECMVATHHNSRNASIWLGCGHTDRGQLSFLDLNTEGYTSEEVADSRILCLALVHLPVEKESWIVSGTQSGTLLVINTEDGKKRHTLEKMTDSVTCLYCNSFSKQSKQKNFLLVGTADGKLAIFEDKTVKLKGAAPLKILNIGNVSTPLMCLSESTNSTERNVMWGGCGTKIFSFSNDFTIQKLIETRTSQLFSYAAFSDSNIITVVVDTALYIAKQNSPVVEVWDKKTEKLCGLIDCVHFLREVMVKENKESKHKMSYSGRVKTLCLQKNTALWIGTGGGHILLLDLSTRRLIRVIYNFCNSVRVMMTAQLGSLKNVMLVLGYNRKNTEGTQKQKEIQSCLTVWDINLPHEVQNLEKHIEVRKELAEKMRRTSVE

`CC1(Oc2ccc3[nH]nc(-c4ccnc(N5CCC(O[C@H]6CC[C@H](CN7CCN(c8ccc9c(c8F)CN(C8CCC(=O)NC8=O)C9=O)CC7)CC6)CC5)c4)c3n2)CC1` (stereo partly drawn) [Compound 375, 3-(4-fluoro-5-(4-(((1r,4r)-4-((1-(4-(5-(1-methylcyclopropoxy)-1H-pyrazolo[4,3-b]pyridin-3-yl)pyridin-2-yl)piperidin-4-yl)oxy)cyclohexyl)methyl)piperazin-1-yl)-1-oxoisoindolin-2-yl)piperidine-2,6-dione]: under setting [1], the 50% degradation concentration (DC50) is less than 10 nM. The Dmax under setting [2] fell in the range of 50 to 70%.
As for `CC1(Oc2ccc3n[nH]c(-c4cc(N5CCN(CCN6CCN(CC7CCN(c8ccc9c(c8)CN(C8CCC(=O)NC8=O)C9=O)CC7)CC6)CC5)ncn4)c3c2)CC1` (stereo not drawn) [Compound 66, 3-{5-[4-({4-[2-(4-{6-[5-(1-methylcyclopropoxy)-2H-indazol-3-yl]pyrimidin-4-yl}piperazin-1-yl)ethyl]piperazin-1-yl}methyl)piperidin-1-yl]-1-oxo-2,3-dihydro-1H-isoindol-2-yl}piperidine-2,6-dione], under setting [3], the Dmax is not below 70%. Under setting [4], the DC50 was less than 10 nM.
Take `COc1c(N2CCC(O[C@H]3CC[C@H](CN4CCN(c5cc(-c6n[nH]c7cnc(OC8(C)CC8)cc67)ncn5)CC4)CC3)CC2)ccc2c1CN(C1CCC(=O)NC1=O)C2=O` (stereo partly drawn) [Compound 273, 3-[4-methoxy-1-oxo-5-(4-{[(1r,4r)-4-[(4-{6-[5-(1-methylcyclopropoxy)-1H-pyrazolo[3,4-c]pyridin-3-yl]pyrimidin-4-yl}piperazin-1-yl)methyl]cyclohexyl]oxy}piperidin-1-yl)-2,3-dihydro-1H-isoindol-2-yl]piperidine-2,6-dione]: the greatest degradation seen (Dmax) under setting [5] is less than 50%. Moreover, the DC50 under setting [6] is less than 10 nM.
On to `CC1(Oc2ccc3n[nH]c(-c4cc(N5CCC(O[C@H]6C[C@H](CN7CCN(c8ccc9c(c8F)CN(C8CCC(=O)NC8=O)C9=O)CC7)C6)CC5)ncn4)c3c2)CC1` (stereo partly drawn) [Compound 351, 3-[4-fluoro-1-oxo-5-(4-{[(1r,3r)-3-[(1-{6-[5-(1-methylcyclopropoxy)-2H-indazol-3-yl]pyrimidin-4-yl}piperidin-4-yl)oxy]cyclobutyl]methyl}piperazin-1-yl)-2,3-dihydro-1H-isoindol-2-yl]piperidine-2,6-dione], for which the Dmax under setting [5] was 50 to 70%. Further, the DC50 under setting [6] was less than 10 nM.
`COc1c(N2CCC(CN3CCN(CC4CCN(c5cc(-c6n[nH]c7ccc(OC8(C)CC8)cc67)ncn5)CC4)C(C)(C)C3)CC2)ccc2c1CN(C1CCC(=O)NC1=O)C2=O` (stereo not drawn) [Compound 251, 3-{5-[4-({3,3-dimethyl-4-[(1-{6-[5-(1-methylcyclopropoxy)-1H-indazol-3-yl]pyrimidin-4-yl}piperidin-4-yl)methyl]piperazin-1-yl}methyl)piperidin-1-yl]-4-methoxy-1-oxo-2,3-dihydro-1H-isoindol-2-yl}piperidine-2,6-dione]: the DC50 under setting [1] is less than 10 nM. In addition, under setting [2], the Dmax fell in the range of 50 to 70%.
As for `CC1(Oc2ccc3[nH]nc(-c4cc(C5CCN(CC6CCN(CC7CCN(c8ccc9c(c8)C(=O)N(C8CCC(=O)NC8=O)C9=O)CC7)CC6)CC5)ncn4)c3c2)CC1` (stereo not drawn) [Compound 105, 2-(2,6-dioxo-3-piperidyl)-5-[4-[[4-[[4-[6-[5-(1-methylcyclopropoxy)-1H-indazol-3-yl]pyrimidin-4-yl]-1-piperidyl]methyl]-1-piperidyl]methyl]-1-piperidyl]isoindoline-1,3-dione], the Dmax under setting [3] lay within 50 to 70%. Further, the DC50 under setting [4] was not below 100 nM.
On to `COc1c(N2CCN(C[C@H]3CC[C@H](OC4CCN(c5cc(-c6n[nH]c7cnc(OC8(C)CC8)cc67)ncn5)CC4)CC3)CC2)ccc2c1CN(C1CCC(=O)NC1=O)C2=O` (stereo partly drawn) [Compound 268, 3-[4-methoxy-1-oxo-5-(4-{[(1r,4r)-4-[(1-{6-[5-(1-methylcyclopropoxy)-1H-pyrazolo[3,4-c]pyridin-3-yl]pyrimidin-4-yl}piperidin-4-yl)oxy]cyclohexyl]methyl}piperazin-1-yl)-2,3-dihydro-1H-isoindol-2-yl]piperidine-2,6-dione], for which, under setting [5], the Dmax lay in the range of 50 to 70%. Further, the half-maximal degradation concentration (DC50) under setting [6] is less than 10 nM.
As to `CC1(Oc2cc3c(-c4cc(N5CCC(CN6CCC(F)(CN7CCN(c8ccc9c(c8F)CN(C8CCC(=O)NC8=O)C9=O)CC7)CC6)CC5)ncn4)n[nH]c3cc2F)CC1` (stereo not drawn) [Compound 199, 3-{4-fluoro-5-[4-({4-fluoro-1-[(1-{6-[6-fluoro-5-(1-methylcyclopropoxy)-1H-indazol-3-yl]pyrimidin-4-yl}piperidin-4-yl)methyl]piperidin-4-yl}methyl)piperazin-1-yl]-1-oxo-2,3-dihydro-1H-isoindol-2-yl}piperidine-2,6-dione], the Dmax (endogenous HiBit-tagged LRRK2, HEK293 cells, 24 hours, read-out: **Endogenous WT Dmax (%)) is not below 70%. In addition, the DC50 (endogenous HiBit-tagged LRRK2, HEK293 cells, 24 hours, read-out: *Endogenous WT DC50) is less than 10 nM.
Take `COc1c(N2CCC(N3CC(OC4CCN(c5cc(-c6[nH]nc7ccc(OC8(C)CC8)cc67)ncn5)CC4)C3)CC2)ccc2c1CN(C1CCC(=O)NC1=O)C2=O` (stereo not drawn) [Compound 356, 3-[4-methoxy-5-(4-{3-[(1-{6-[5-(1-methylcyclopropoxy)-2H-indazol-3-yl]pyrimidin-4-yl}piperidin-4-yl)oxy]azetidin-1-yl}piperidin-1-yl)-1-oxo-2,3-dihydro-1H-isoindol-2-yl]piperidine-2,6-dione]: the Dmax under setting [5] lay in the range of 50 to 70%. For the same compound, the DC50 under setting [6] was less than 10 nM.
In the case of `CC1(Oc2cc3c(-c4cc(N5CCN(C[C@H]6CC[C@H](OC7CCN(c8ccc9c(c8F)CN(C8CCC(=O)NC8=O)C9=O)CC7)CC6)CC5)ncn4)n[nH]c3cc2F)CC1` (stereo partly drawn) [Compound 260, 3-[4-fluoro-1-oxo-5-(4-{[(1r,4r)-4-[(4-{6-[6-fluoro-5-(1-methylcyclopropoxy)-1H-indazol-3-yl]pyrimidin-4-yl}piperazin-1-yl)methyl]cyclohexyl]oxy}piperidin-1-yl)-2,3-dihydro-1H-isoindol-2-yl]piperidine-2,6-dione], the Dmax under setting [5] lay within 50 to 70%. Also, under setting [6], the 50% degradation concentration (DC50) was less than 10 nM.
For `CC1(Oc2ccc3[nH]nc(-c4cc(N5CCC(C(C)(C)N6CCN(CC7CCN(c8ccc9c(c8F)CN(C8CCC(=O)NC8=O)C9=O)CC7)CC6)CC5)ncn4)c3c2)CC1` (stereo not drawn) [Compound 320, 3-{4-fluoro-5-[4-({4-[2-(1-{6-[5-(1-methylcyclopropoxy)-1H-indazol-3-yl]pyrimidin-4-yl}piperidin-4-yl)propan-2-yl]piperazin-1-yl}methyl)piperidin-1-yl]-1-oxo-2,3-dihydro-1H-isoindol-2-yl}piperidine-2,6-dione], the greatest degradation seen (Dmax) under setting [5] lay in the range of 50 to 70%. The DC50 under setting [6] is less than 10 nM.
For `COc1c(N2CCN(C[C@H]3CC[C@H](CN4CCN(c5cc(-c6n[nH]c7cnc(OC8(C)CC8)cc67)ncn5)CC4)CC3)CC2)ccc2c1CN(C1CCC(=O)NC1=O)C2=O` (stereo partly drawn) [Compound 261, 3-[4-methoxy-1-oxo-5-(4-{[(1r,4r)-4-[(4-{6-[5-(1-methylcyclopropoxy)-1H-pyrazolo[3,4-c]pyridin-3-yl]pyrimidin-4-yl}piperazin-1-yl)methyl]cyclohexyl]methyl}piperazin-1-yl)-2,3-dihydro-1H-isoindol-2-yl]piperidine-2,6-dione], under setting [5], the Dmax is 50 to 70%. The DC50 under setting [6] was less than 10 nM.
